Measured values: patent US12503475B2 (Centessa Pharmaceuticals (UK) Limited, priority 2020, dated 2025)
Several values for one entry are separate records, joined by “and”; a condition that tells them apart may be missing. Equal entries are not always repeated.

Target: T1, human orexin type 2 receptor (hOX2R) (Homo sapiens, UniProt O43614)
T1 construct: expressed in transfected cells
T1 sequence (O43614 1-444): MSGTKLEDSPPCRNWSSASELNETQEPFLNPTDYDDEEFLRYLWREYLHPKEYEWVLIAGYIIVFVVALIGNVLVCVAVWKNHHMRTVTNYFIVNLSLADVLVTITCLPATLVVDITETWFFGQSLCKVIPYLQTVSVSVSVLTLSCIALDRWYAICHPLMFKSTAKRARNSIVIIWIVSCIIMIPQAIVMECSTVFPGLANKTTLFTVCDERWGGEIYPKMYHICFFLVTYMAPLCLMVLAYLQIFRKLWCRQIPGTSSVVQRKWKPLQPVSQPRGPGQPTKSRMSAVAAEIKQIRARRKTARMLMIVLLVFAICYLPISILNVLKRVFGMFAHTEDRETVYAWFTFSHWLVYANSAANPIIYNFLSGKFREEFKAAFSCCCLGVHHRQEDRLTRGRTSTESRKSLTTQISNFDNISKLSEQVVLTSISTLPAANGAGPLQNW
Assay: Measurement of orexin type 2 receptor agonist activity (FLIPR calcium fluorescence)
Assay type: cell-based
Settings: CHO cells expressing hOX2R, FLIPR calcium fluorescence; for EC50: read-out: hOx2 pEC50 (converted); for Emax: CHO, read-out: hOx2 Emax (%)
Outline: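 Agonism was read as fluorescence in cells stably expressing human OX2R. E. is the response at 10 μM relative to orexin A as full agonist (100%).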

Compound	EC50	Emax	hOx2 Emax (%)	hOx2 pEC50
CCS(=O)(=O)NC1C(Cc2cccc(-c3ccccc3)c2)N(C(=O)OC)CC12CC2 (racemic) [Compound 6, methyl 6-([1,1′-biphenyl]-3-ylmethyl)-7-(ethylsulfonamido)-5-azaspiro[2.4]heptane-5-carboxylate]	100 to 1000 nM	70 to 80%		
(6S,7S)-6-(2,5-difluoro-[1,1′- biphenyl]-3-yl)methyl)-7- ((difluoromethyl)sulfonamido)- N-((S)-1-fluoroethyl)-5- azaspiro[2.4]heptane-5- carboxamide [Compound 216]			A (Emax ranging between 90 and 100)	**** (pEC50 ranging between 8.0 and 9.0)
CCCNC(=O)N1CC2(CC2)[C@H](NS(C)(=O)=O)[C@@H]1Cc1cccc(-c2ccccc2)c1OC [Compound 342, (6S,7S)-6-((2-methoxy-[1,1′-biphenyl]-3-yl)methyl)-7-(methylsulfonamido)-N-propyl-5-azaspiro[2.4]heptane-5-carboxamide]	10 to 100 nM	70 to 80%		
CS(=O)(=O)N[C@@H]1[C@H](Cc2cccc(-c3cccc(Cl)c3)c2F)N(C(=O)[C@H]2CCO2)CC12CC2 [Compound 161, N-((6S,7S)-6-((3′-chloro-2-fluoro-[1,1′-biphenyl]-3-yl)methyl)-5-((R)-oxetane-2-carbonyl)-5-azaspiro[2.4]heptan-7-yl)methanesulfonamide]	1 to 10 nM	90 to 100%		
[2H]C([2H])([2H])N(C(=O)N1CC2(CC2)[C@H](NS(C)(=O)=O)[C@@H]1Cc1cccc(-c2ccccc2)c1F)C([2H])([2H])[2H] [Compound 345, (6S,7S)-6-((2-fluoro-[1,1′-biphenyl]-3-yl)methyl)-N,N-bis(methyl-d3)-7-(methylsulfonamido)-5-azaspiro[2.4]heptane-5-carboxamide]	1 to 10 nM	90 to 100%		
CC(C)(O)C(=O)N1CC2(CC2)C(NS(C)(=O)=O)C1Cc1cccc(-c2cc(F)cc(F)c2)c1F (racemic) [Compound 28, N-(5-(2-hydroxy-2-methylpropanoyl)-6-((2,3′,5′-trifluoro-[1,1′-biphenyl]-3-yl)methyl)-5-azaspiro[2.4]heptan-7-yl)methanesulfonamide]	10 to 100 nM	90 to 100%		
C[C@@H](F)C(=O)N1CC2(CC2)[C@H](NS(=O)(=O)CF)[C@@H]1Cc1cc(F)cc(-c2cc(F)cc(F)c2)c1F [Compound 414, 1-fluoro-N-((6S,7S)-5-((R)-2-fluoropropanoyl)-6-((2,3′,5,5′-tetrafluoro-[1,1′-biphenyl]-3-yl)methyl)-5-azaspiro[2.4]heptan-7-yl)methanesulfonamide]	0.0794 to 1 nM	90 to 100%		
CO[C@H]1CCN(C(=O)N2CC3(CC3)[C@H](NS(C)(=O)=O)[C@@H]2Cc2cccc(-c3ccccc3)c2F)C1 [Compound 313, N-((6S,7S)-6-((2-fluoro-[1,1′-biphenyl]-3-yl)methyl)-5-((S)-3-methoxypyrrolidine-1-carbonyl)-5-azaspiro[2.4]heptan-7-yl)methanesulfonamide]	10 to 100 nM	90 to 100%		
O=C([C@H](O)CF)N1CC2(CC2)[C@H](NS(=O)(=O)C(F)F)[C@@H]1Cc1cccc(-c2cccc(F)c2)c1F [Compound 380, N-((6S,7S)-6-((2,3′-difluoro-[1,1′-biphenyl]-3-yl)methyl)-5-((S)-3-fluoro-2-hydroxypropanoyl)-5-azaspiro[2.4]heptan-7-yl)-1,1-difluoromethanesulfonamide]	0.0794 to 1 nM	90 to 100%		
CC(C)C(=O)N1CC2(CC2)[C@H](NS(C)(=O)=O)[C@@H]1Cc1cccc(-c2ccccc2F)c1 (racemic) [Compound 297]	1 to 10 nM	90 to 100%		
C[C@H](CO)NC(=O)N1CC2(CC2)[C@H](NS(=O)(=O)C(F)F)[C@@H]1Cc1cccc(-c2ccccc2)c1F [Compound 364, (6S,7S)-7-((difluoromethyl)sulfonamido)-6-((2-fluoro-[1,1′-biphenyl]-3-yl)methyl)-N-((R)-1-hydroxypropan-2-yl)-5-azaspiro[2.4]heptane-5-carboxamide]	0.0794 to 1 nM	90 to 100%		
CS(=O)(=O)N[C@H]1[C@@H](Cc2cccc(-c3cccc(F)c3)c2F)N(C(=O)N2CCC2)CC12CC2 [Compound 26, N-((6R,7R)-5-(azetidine-1-carbonyl)-6-((2,3′-difluoro-[1,1′-biphenyl]-3-yl)methyl)-5-azaspiro[2.4]heptan-7-yl)methanesulfonamide]	10 to 100 nM	90 to 100%		
COc1c(C[C@H]2[C@@H](NS(C)(=O)=O)C3(CC3)CN2C(=O)C2CC(F)C2)cccc1-c1ccccc1 (stereo partly drawn) [Compound 340, N-((6S,7S)-5-(3-fluorocyclobutane-1-carbonyl)-6-((2-methoxy-[1,1′-biphenyl]-3-yl)methyl)-5-azaspiro[2.4]heptan-7-yl)methanesulfonamide]			D (Emax ranging between 60 and 70)	*** (pEC50 ranging between 7.0 and 8.0)
CS(=O)(=O)N[C@@H]1[C@H](Cc2cccc(-c3ccccc3)c2F)N(C(=O)NCCO)CC12CC2 (racemic) [Compound 307, 6-((2-fluoro-[1,1′-biphenyl]-3-yl)methyl)-N-(2-hydroxyethyl)-7-(methylsulfonamido)-5-azaspiro[2.4]heptane-5-carboxamide]	1 to 10 nM	90 to 100%		
N-((6S,7S)-6-((2-fluoro-[1,1′- biphenyl]-3-yl)methyl)-5-((R)- 2-(fluoromethyl)azetidine-1- carbonyl)-5- azaspiro[2.4]heptan-7- yl)metbanesulfonamide [Compound 314]			A (Emax ranging between 90 and 100)	**** (pEC50 ranging between 8.0 and 9.0)

Further lines, with some results ahead:

EC50	Emax	Compound	hOx2 Emax (%)	hOx2 pEC50
1 to 10 nM and 0.0794 to 1 nM	90 to 100%	CS(=O)(=O)N[C@@H]1[C@H](Cc2cccc(-c3cccc(F)c3)c2F)N(C(=O)N2CCC2)CC12CC2 [Compound 27, N-((6S,7S)-5-(azetidine-1-carbonyl)-6-((2,3′-difluoro-[1,1′-biphenyl]-3-yl)methyl)-5-azaspiro[2.4]heptan-7-yl)methanesulfonamide]		
10 to 100 nM	90 to 100%	CS(=O)(=O)N[C@@H]1[C@H](Cc2cccc(-c3ccccc3F)c2)N(C(=O)[C@H]2CCO2)CC12CC2 [Compound 40, N-((6S,7S)-6-((2′-fluoro-[1,1′-biphenyl]-3-yl)methyl)-5-((R)-oxetane-2-carbonyl)-5-azaspiro[2.4]heptan-7-yl)methanesulfonamide]		
1 to 10 nM	90 to 100%	C[C@H](F)C(=O)N1CC2(CC2)[C@H](NS(C)(=O)=O)[C@@H]1Cc1cccc(-c2ccccc2)c1F [Compound 346, N-((6S,7S)-6-((2-fluoro-[1,1′-biphenyl]-3-yl)methyl)-5-((S)-2-fluoropropanoyl)-5-azaspiro[2.4]heptan-7-yl)methanesulfonamide]		
1 to 10 nM	90 to 100%	CC[C@](C)(O)C(=O)N1CC2(CC2)[C@H](NS(=O)(=O)CF)[C@@H]1Cc1cccc(-c2cccc(F)c2)c1F [Compound 376, N-((6S,7S)-6-((2,3′-difluoro-[1,1′-biphenyl]-3-yl)methyl)-5-((S)-2-hydroxy-2-methylbutanoyl)-5-azaspiro[2.4]heptan-7-yl)-1-fluoromethanesulfonamide]		
100 to 1000 nM	80 to 90%	CS(=O)(=O)NC1C(Cc2cccc(-c3ccccc3)c2)N(C(=O)C2CC(F)(F)C2)CC12CC2 (racemic) [Compound 12, N-(6-([1,1-biphenyl]-3-ylmethyl)-5-(3,3-difluorocyclobutane-1-carbonyl)-5-azaspiro[2.4]heptan-7-yl)methanesulfonamide]		
1 to 10 nM	90 to 100%	O=C([C@H]1CCO1)N1CC2(CC2)[C@H](NS(=O)(=O)CF)[C@@H]1Cc1cc(F)cc(-c2cccc(F)c2F)c1F [Compound 217, 1-fluoro-N-((6S,7S)-5-((R)-oxetane-2-carbonyl)-6-((2,2′,3′,5-tetrafluoro-[1,1′-biphenyl]-3-yl)methyl)-5-azaspiro[2.4]heptan-7-yl)methanesulfonamide]		
1 to 10 nM	90 to 100%	C[C@H](F)S(=O)(=O)N[C@@H]1[C@H](Cc2cccc(-c3ccccc3)c2F)N(C(=O)[C@H]2CCO2)CC12CC2 [Compound 194, (R)-1-fluoro-N-((6S,7S)-6-((2-fluoro-[1,1′-biphenyl]-3-yl)methyl)-5-((R)-oxetane-2-carbonyl)-5-azaspiro[2.4]heptan-7-yl)ethane-1-sulfonamide]		
10 to 100 nM	90 to 100%	CS(=O)(=O)N[C@H]1[C@@H](Cc2cccc(-c3cc(F)cc(F)c3)c2F)N(C(=O)N2CCC2)CC12CC2 [Compound 31, N-((6R,7R)-5-(azetidine-1-carbonyl)-6-((2,3′,5′-trifluoro-[1,1′-biphenyl]-3-yl)methyl)-5-azaspiro[2.4]heptan-7-yl)methanesulfonamide]		
1 to 10 nM	90 to 100%	O=C([C@H]1CCO1)N1CC2(CC2)[C@H](NS(=O)(=O)C2CC2)[C@@H]1Cc1cc(F)cc(-c2cc(F)cc(F)c2)c1F [Compound 405, N-((6S,7S)-5-((R)-oxetane-2-carbonyl)-6-((2,3′,5,5′-tetrafluoro-[1,1′-biphenyl]-3-yl)methyl)-5-azaspiro[2.4]heptan-7-yl)cyclopropanesulfonamide]		
